From US20230034660A1, “PEPTIDES THAT ENHANCE NMDA RECEPTOR FUNCTION AND USE THEREOF” (University of Pittsburgh - Of the Commonwealth System of …, priority 2019, published 2023)

Biological target: T1, GluN2A-ZnT1 interactions (Rattus norvegicus, UniProt Q62720)
T1 construct: endogenous in cells; host or cells: rat embryonic (E16) cortical cultures, 3-4 weeks in vitro
T1 sequence (Q62720 1-507): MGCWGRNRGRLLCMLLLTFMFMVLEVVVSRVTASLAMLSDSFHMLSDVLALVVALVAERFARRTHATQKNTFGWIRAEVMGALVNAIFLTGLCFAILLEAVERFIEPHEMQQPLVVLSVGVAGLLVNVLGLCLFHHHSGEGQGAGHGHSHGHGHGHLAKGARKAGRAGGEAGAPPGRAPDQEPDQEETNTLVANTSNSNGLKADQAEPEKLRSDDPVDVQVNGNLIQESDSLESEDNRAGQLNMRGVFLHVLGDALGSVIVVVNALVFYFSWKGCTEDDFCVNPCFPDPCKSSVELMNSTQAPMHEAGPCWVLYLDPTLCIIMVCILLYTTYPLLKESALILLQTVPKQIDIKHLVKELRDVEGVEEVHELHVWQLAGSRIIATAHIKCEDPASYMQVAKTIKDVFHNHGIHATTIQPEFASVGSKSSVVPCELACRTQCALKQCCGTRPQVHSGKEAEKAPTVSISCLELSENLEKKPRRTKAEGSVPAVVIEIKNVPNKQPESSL
Experiment: Proximity ligation assay (PLA) between GluN2A and ZnT1 in cortical cultures
Type: cell-based
Conditions: 3 μM overnight, cortical cultures 21-25 DIV, compared to scramble controls in sister cultures
Procedure: FIGS. 3A-3B: N2AZ disrupts ZnT1 binding to the GluN2A subunit of NMDAR. (FIG. 3A) Representative images of rat cortical cultures following proximity ligation assay (PLA) between GluN2A and ZnT1. The PLA immunofluorescently labeled sites of interaction between GluN2A and ZnT1 (white punctae). Additionally, Map2 is immunofluorescently labeled to visualize neuron morphology. Scale bar: 20 μm. Top row denotes PLA assay following overnight exposure to 3 μM scN2AZ, while bottom row denotes PLA assay following 3 μM N2AZ treatment. Insets show the localization of PLA punctae along a Map2 stained dendrite. […] Filled circles indicate the quantification of representative images in FIG. 3A. Error bars indicate mean±SEM. […]
Proximity ligation assays were performed using Duolink PLA kit. […] PLA puncta were counted automatically using Fiji ImageJ (Version 2.0) software using maximum intensity projection of 8 sequential images in the z plane. All images were normalized to the same intensity threshold using the Yen threshold setting prior to automated quantification of punctae.
Next, rat neuronal cortical cultures were utilized to determine whether N2AZ treatment was sufficient to disrupt GluN2A-ZnT1 binding in vitro. First, however, ZnT1 expression in cortical cultures was verified using quantitative PCR. […] Next, GluN2A-ZnT1 interactions in the cultures were quantified using a proximity ligation assay (PLA). […]

Sequence: NDSYLRSSL [Peptide N2AZ]
- amount of PLA puncta: significantly reduced
